Experimental data published in ChEMBL document CHEMBL4020782, “Design, synthesis and biological evaluation of 4-piperazinyl-containing Chidamide derivatives as HDACs inhibitors” (Bioorg Med Chem Lett, 2017).

Assays:
[1] = target: T1, Histone deacetylase 1 (Homo sapiens, UniProt Q13547); assay: Inhibition of recombinant human HDAC1 using a fluorogenic substrate at 1 uM by fluorescence method
[2] = target: T1, Histone deacetylase 1; assay: Inhibition of recombinant human HDAC1 using a fluorogenic substrate at 10 uM by fluorescence method
[3] = test system: MRC5; assay: Antiproliferative activity against human MRC5 cells after 48 to 72 hrs by MTT assay; format: cell-based
[4] = target: T1, Histone deacetylase 1; assay: Inhibition of recombinant human HDAC1 using a fluorogenic substrate by fluorescence method
[5] = test system: HCT-116; assay: Antiproliferative activity against human HCT116 cells after 48 to 72 hrs by MTT assay; format: functional, cell-based
[6] = test system: A549; assay: Antiproliferative activity against human A549 cells after 48 to 72 hrs by MTT assay; format: functional, cell-based
[7] = test system: K562; assay: Antiproliferative activity against human K562 cells after 48 to 72 hrs by MTT assay; format: functional, cell-based
[8] = test system: PC-3; assay: Antiproliferative activity against human PC3 cells after 48 to 72 hrs by MTT assay; format: functional, cell-based
[9] = target: Voltage-gated inwardly rectifying potassium channel KCNH2 (Homo sapiens, UniProt Q12809); assay: Inhibition of recombinant human ERG expressed in HEK293 cells after 9 mins by patch clamp method
Chain of Voltage-gated inwardly rectifying potassium channel KCNH2 (Q12809 whole entry): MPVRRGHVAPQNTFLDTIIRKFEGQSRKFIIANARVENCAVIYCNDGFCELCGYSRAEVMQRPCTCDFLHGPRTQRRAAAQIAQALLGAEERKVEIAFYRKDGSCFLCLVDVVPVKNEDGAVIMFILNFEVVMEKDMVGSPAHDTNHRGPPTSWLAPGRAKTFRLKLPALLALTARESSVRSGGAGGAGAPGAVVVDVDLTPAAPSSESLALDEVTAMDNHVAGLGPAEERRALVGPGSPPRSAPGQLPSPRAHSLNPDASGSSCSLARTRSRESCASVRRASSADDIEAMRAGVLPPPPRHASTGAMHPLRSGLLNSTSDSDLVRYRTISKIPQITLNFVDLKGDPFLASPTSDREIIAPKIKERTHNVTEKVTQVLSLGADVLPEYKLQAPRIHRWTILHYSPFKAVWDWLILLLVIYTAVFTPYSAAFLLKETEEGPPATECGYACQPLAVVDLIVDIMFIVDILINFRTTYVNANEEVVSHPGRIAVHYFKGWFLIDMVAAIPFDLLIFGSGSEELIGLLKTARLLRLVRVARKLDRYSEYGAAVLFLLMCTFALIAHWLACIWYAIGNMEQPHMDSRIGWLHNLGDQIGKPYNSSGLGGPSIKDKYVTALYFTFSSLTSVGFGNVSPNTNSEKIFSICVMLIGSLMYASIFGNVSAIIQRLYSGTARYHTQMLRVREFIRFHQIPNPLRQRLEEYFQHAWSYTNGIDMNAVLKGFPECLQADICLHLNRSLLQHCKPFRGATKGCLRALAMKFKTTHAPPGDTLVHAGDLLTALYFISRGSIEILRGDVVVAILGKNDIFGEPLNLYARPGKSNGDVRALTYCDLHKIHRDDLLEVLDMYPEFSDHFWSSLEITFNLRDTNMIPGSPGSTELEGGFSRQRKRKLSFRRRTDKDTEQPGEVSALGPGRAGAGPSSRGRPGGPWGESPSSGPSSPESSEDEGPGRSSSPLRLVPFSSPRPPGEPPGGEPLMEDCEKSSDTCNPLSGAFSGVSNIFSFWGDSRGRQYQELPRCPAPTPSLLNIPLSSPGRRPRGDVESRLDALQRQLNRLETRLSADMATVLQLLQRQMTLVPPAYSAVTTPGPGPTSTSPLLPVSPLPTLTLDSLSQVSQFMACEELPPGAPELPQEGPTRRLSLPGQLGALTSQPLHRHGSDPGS

[10] = Terminal half life in Sprague-Dawley rat at 2 mg/kg, iv administered as single dose by HPLC-MS method; format: ADME, organism-based; conditions: in vivo, read-out: beta t1/2 (converted)
[11] = Clearance in Sprague-Dawley rat at 2 mg/kg, iv administered as single dose by HPLC-MS method; format: ADME, organism-based; conditions: in vivo
[12] = Volume of distribution at steady state in Sprague-Dawley rat at 2 mg/kg, iv administered as single dose by HPLC-MS method; format: ADME, organism-based; conditions: in vivo, read-out: Vdss
[13] = Tmax in Sprague-Dawley rat at 10 mg/kg, po administered as single dose by HPLC-MS method; format: ADME, organism-based; conditions: in vivo
[14] = Cmax in Sprague-Dawley rat at 10 mg/kg, po administered as single dose by HPLC-MS method; format: ADME, organism-based; set-up: dose 10 mg/kg, route oral; conditions: in vivo
[15] = AUC in Sprague-Dawley rat at 10 mg/kg, po administered as single dose by HPLC-MS method; format: ADME, organism-based; conditions: in vivo
[16] = Oral bioavailability in Sprague-Dawley rat at 10 mg/kg administered as single dose by HPLC-MS method; format: ADME, organism-based; conditions: in vivo
[17] = test system: HCT-116; assay: Antitumor activity against human HCT116 cells xenografted in mouse assessed as tumor growth inhibition at 25 mg/kg, po daily for 21 days; format: functional; conditions: HCT-116, po, 504 h, read-out: TGI
[18] = test system: HCT-116; assay: Antitumor activity against human HCT116 cells xenografted in mouse assessed as tumor growth inhibition at 50 mg/kg, po daily for 21 days; format: functional; conditions: HCT-116, po, 504 h, read-out: TGI
[19] = test system: HCT-116; assay: Antitumor activity against human HCT116 cells xenografted in mouse assessed as tumor growth inhibition at 100 mg/kg, po daily for 21 days; format: functional; conditions: HCT-116, po, 504 h, read-out: TGI
[20] = test system: HCT-116; assay: Antitumor activity against human HCT116 cells xenografted in po dosed mouse assessed as tumor growth inhibition administered daily for 21 days; format: functional, organism-based
[21] = test system: Mus musculus; assay: Toxicity in mouse xenografted with HCT116 cells assessed as weight loss at 50 mg/kg, po daily for 21 days; format: organism-based; conditions: in vivo, 504 h
[22] = test system: Mus musculus; assay: Toxicity in mouse xenografted with HCT116 cells assessed as weight loss at 100 mg/kg, po daily measured for 12 days; format: organism-based; conditions: in vivo, 288 h
[23] = test system: Mus musculus; assay: Toxicity in mouse xenografted with HCT116 cells assessed as weight loss at 25 mg/kg, po daily for 21 days; format: organism-based; conditions: in vivo, 504 h
[24] = target: T1, Histone deacetylase 1; assay: Inhibition of recombinant human HDAC1 expressed in Baculovirus insect cell expression system using [3H]-metabolically labeled acetylated histone substrate after 30 mins by scintillation counting
[25] = test system: PC-3; assay: Antitumor activity against human PC3 cells xenografted in nude mouse assessed as tumor growth inhibition at 100 mg/kg, ig administered 7 days per week for 3 weeks; format: functional; conditions: PC-3, po, read-out: TGI

T1 sequence (Q13547 whole entry): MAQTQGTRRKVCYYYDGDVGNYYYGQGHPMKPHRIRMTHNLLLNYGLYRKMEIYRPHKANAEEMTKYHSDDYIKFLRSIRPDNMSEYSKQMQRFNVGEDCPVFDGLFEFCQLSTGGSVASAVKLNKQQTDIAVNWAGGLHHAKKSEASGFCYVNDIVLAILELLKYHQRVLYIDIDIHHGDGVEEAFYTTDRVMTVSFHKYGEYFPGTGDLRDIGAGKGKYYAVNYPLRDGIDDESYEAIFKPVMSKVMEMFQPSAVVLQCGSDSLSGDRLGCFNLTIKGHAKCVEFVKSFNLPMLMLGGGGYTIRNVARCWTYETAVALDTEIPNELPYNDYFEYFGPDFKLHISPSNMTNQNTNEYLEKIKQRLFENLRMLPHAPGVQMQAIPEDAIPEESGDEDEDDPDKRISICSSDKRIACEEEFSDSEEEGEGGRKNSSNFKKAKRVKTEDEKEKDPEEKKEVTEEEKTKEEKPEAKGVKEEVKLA

For `Nc1ccccc1NC(=O)c1ccc(N2CCN(C(=O)/C=C/c3ccc4c(c3)OCO4)CC2)cc1`, the inhibition [1] was 49.6% and the inhibition [2] was 75.5%.
`Nc1ccccc1NC(=O)c1ccc(N2CCN(C(=O)/C=C/c3cccnc3)CC2)cc1` showed an inhibition [1] of 18.1% and an inhibition [2] of 53.8%.
For `Nc1cc(F)ccc1NC(=O)c1ccc(N2CCN(C(=O)/C=C/c3ccc(F)cc3)CC2)cc1`, the inhibition [1] was 36% and the inhibition [2] was 58.8%.
For `Nc1ccccc1NC(=O)c1ccc(N2CCN(C(=O)/C=C/c3ccc(F)cc3)CC2)cc1`, the IC50 [3] was > 30000 nM, the inhibition [1] was 52% and the inhibition [2] was 79%. The IC50 [4] was 983 nM, the IC50 [5] was 1980 nM and the IC50 [6] was 811 nM. For the same compound, the IC50 [7] was 1100 nM and the IC50 [8] was 2140 nM.
In the case of `COc1cccc(/C=C/C(=O)N2CCN(c3ccc(C(=O)Nc4ccccc4N)cc3)CC2)c1`, the inhibition [1] is reported as 45.3% and the inhibition [2] is reported as 66.9%.
For `COc1cc(/C=C/C(=O)N2CCN(c3ccc(C(=O)Nc4ccccc4N)cc3)CC2)cc(OC)c1OC`, the inhibition [1] was 21.8% and the inhibition [2] was 60.5%.
For `Nc1ccc(F)cc1NC(=O)c1ccc(CNC(=O)/C=C/c2cccnc2)cc1`, the IC50 [3] was > 30000 nM, the inhibition [1] was 55.1% and the inhibition [2] was 81.3%. For the same compound, the IC50 [5] was 202 nM, the IC50 [6] was 665 nM and the IC50 [7] was 975 nM. For the same compound, the IC50 [8] was 2090 nM.
With `Cc1ccc(/C=C/C(=O)N2CCN(c3ccc(C(=O)Nc4ccccc4N)cc3)CC2)cc1` the IC50 [3] was > 30000 nM, the inhibition [1] was 56.3% and the inhibition [2] was 94.2%. It also gave an IC50 [4] of 798 nM, an IC50 [5] of 69 nM and an IC50 [6] of 135 nM. For the same compound, the IC50 [7] was 4860 nM, the IC50 [8] was 3960 nM and the IC50 [9] was 27100 nM. The half-life [10] was 64.2 min, the clearance [11] was 7.5 mL/min/kg and the Vd [12] was 0.11 L/kg. For the same compound, the Tmax [13] was 25.8 min, the Cmax [14] was 2510 ng/mL and the AUC [15] was 8910 ng·h/mL. The bioavailability [16] was 36.3%, the inhibition in vivo at 25 mg/kg [17] was 42.4% and the inhibition in vivo at 50 mg/kg [18] was 55.1%. For the same compound, the inhibition in vivo at 100 mg/kg [19] was 76.3%, the TGI [20] was “Dose-dependent effect” and the Activity [21] was 11.3%. For the same compound, the Activity [22] was 19.2% and the Activity [23] was < 5%.
In the case of `Nc1cc(F)ccc1NC(=O)c1ccc(N2CCN(C(=O)/C=C/c3cccnc3)CC2)cc1`, the inhibition [1] is reported as 4.71% and the inhibition [2] is reported as 19.2%.
For `COc1ccc(/C=C/C(=O)N2CCN(c3ccc(C(=O)Nc4ccccc4N)cc3)CC2)cc1`, the IC50 [3] was > 30000 nM, the inhibition [1] was 50.2% and the inhibition [2] was 87.8%. For the same compound, the IC50 [4] was 903 nM, the IC50 [5] was 765 nM and the IC50 [6] was 530 nM. For the same compound, the IC50 [7] was 2960 nM, the IC50 [8] was 8710 nM and the IC50 [9] was 25100 nM.
`COc1ccc(/C=C/C(=O)N2CCN(c3ccc(C(=O)Nc4ccccc4N)cc3)CC2)cc1OC` showed an inhibition [1] of 46.5% and an inhibition [2] of 79.2%.
With `Nc1ccccc1NC(=O)c1ccc(N2CCN(C(=O)/C=C/c3ccccc3)CC2)cc1` the inhibition [1] was 34.3% and the inhibition [2] was 66.8%.
`Nc1cc(F)ccc1NC(=O)c1ccc(N2CCN(C(=O)/C=C/c3ccc4c(c3)OCO4)CC2)cc1` showed an inhibition [1] of 18% and an inhibition [2] of 53.4%.
For `Cc1ccc(/C=C/C(=O)N2CCN(c3ccc(C(=O)Nc4ccc(F)cc4N)cc3)CC2)cc1`, the inhibition [1] was 17.4% and the inhibition [2] was 64.3%.
`COc1ccc(/C=C/C(=O)NCc2ccc(C(=O)Nc3ccncc3N)cc2)cc1` gave an IC50 [24] of 3300 nM and an inhibition in vivo at 100 mg/kg [25] of 39%.
